Results: US20130303460A1, “PEPTIDES AND COMPOSITIONS FOR THE TREATMENT OF NEUROECTODERMAL DERIVED TUMORS AND RETINOBLASTOMA” (Biokine Therapeutics Ltd., priority 2011, published 2013)

Assays:
[1] = tested on: Neuroblastoma tumor cells injected into the adrenal; test: Neuroblastoma tumor growth in mice, residual disease model; assay type: in vivo, NOD/SCID mice; conditions: 300 μg per mouse from day 3 until day 30 after inoculation; residual disease model (FIG. 7)
Protocol: (§1) NOD/SCID mice were maintained under defined flora conditions at the Hebrew University Pathogen-Free Animal Facility. All experiments were approved by the Animal Care Committee of the Hebrew University. 10^6 Neuroblastoma tumor cells were injected into the adrenal of the mice ([…] per mouse). As control, mice were treated with PBS. Tumor growth was monitored weekly. MRI testing was performed on a horizontal 4.7 T Bruker Biospec spectrometer, using a birdcage coil.

[2] = tested on: Neuroblastoma cancer cell lines (SHY-5Y, SK-N-BE and NHH-NB-11); test: Neuroblastoma cell viability, CellTiter 96 AQueous Non-Radioactive Cell Proliferation Assay; assay type: cell-based, human; conditions: 72 hours, 10% FCS; compared to other CXCR4 antagonists (e.g. AMD3100) (FIG. 4)
Protocol: Neuroblastoma cancer cell lines (SHY-5Y, SK-N-BE and NHH-NB-11, FIGS. 4A, 4B, and 4C, respectively) were seeded at 2×10^4 viable cells/100 μl per well into a 96-well plate in triplicates in a medium supplemented with 10% FCS and incubated with different concentrations of BKT140, PLK1, AurA or AMD3100 for 72 hours. The plate was than tested for cell viability using the CellTiter 96® AQueous Non-Radioactive Cell Proliferation Assay.

[3] = tested on: epithelial tumor cells (e.g., breast and prostate carcinoma and glioblastoma); test: Effect on epithelial tumor cells; assay type: cell-based; conditions: summary statement, example not given
[4] = tested on: Neuroblastoma tumor cells injected into the adrenal; test: Neuroblastoma tumor growth in mice, established (treatment) disease model; assay type: in vivo, NOD/SCID mice; conditions: subcutaneously 300 μg per mouse until day 30, started when tumor size reached ~0.04 cm^2 (FIG. 8)
Protocol: as §1

Y79 Retinoblastoma cells = test: Survival of Y79 retinoblastoma cells (PI staining, FACS); assay type: cell-based, human; conditions: 4, 8, 20 and 40 micromolar, 24 hr; PI staining FACS (FIG. 3)
Protocol: Y79: Retinoblastoma cells from primary tumor with familial history of Retinoblastoma;
All cell lines were cultured in RPMI1640 (Gibco BRL life technologies)+10% FCS, 1% L-Glutamine, 1% PS (Penicillin, Streptomycin) (Biological Industries, Kibbutz Beth Haemek, Israel) at 37° C., 5% CO2.
4F-benzoyl-TN14003 (designated BKT140) effect on Y79 Retinoblastoma cells survival.

[5] = tested on: Neuroblastoma cancer cell lines (SHY-5Y, SK-N-BE and NHH-NB-11); test: Neuroblastoma cell death, PI+ cells by FACS and morphological assays; assay type: cell-based, human; conditions: 1% FCS, twenty hr, SK-N-BE and NHH-NB-11 (FIGS. 5, 6)
Protocol: The effect of BKT140 or AMD3100 on the proliferation of neuroblastoma cancer cell lines was tested by seeding the cells at 2×10^4 cells/1 ml per well into a 24-well plate in medium supplemented with 1% FCS. Twenty hr later the cells stained with PI (Sigma, St. Louis, Mo.), and the number of PI+cells (death cells) was determined using FACS analysis (as described above) (see, FIG. 6A).

## 4F-benzoyl-Arg-Arg-Nal-Cys-Tyr-Cit-Lys-DLys-Pro-Tyr-Arg-Cit-Cys-Arg-NH2 [4F-benzoyl-TN14003]
[1]
  tumor growth: delayed and in some cases inhibited tumor growth
[2]
  cell viability of neuroblastoma cells: remarkably low cell viability
[3]; breast and prostate carcinoma and glioblastoma
  growth of epithelial tumor cells: in some cases even stimulated the growth of epithelial tumor cells
[3]
  epithelial tumor cell death: did not induce epithelial tumor cell death
[4]
  tumor growth: delayed and in some cases inhibited tumor growth
Y79 Retinoblastoma cells
  cell death / survival of Y79 retinoblastoma cells: stimulate cell death of retinoblastoma cells
[5]
  neuroblastoma cell death (PI+ cells): stimulate neuroblastoma cell death
